Experimental data taken from patent US20160061849A1, “LIPIDOMIC BIOMARKERS” (UNITHER VIROLOGY, LLC, priority 2014, published 2016).

Assays:
[1] = test system: PI3 kinase; settings: cited from earlier work
[2] = test system: ER alpha glucosidases; settings: cited from earlier work
[3] = test system: Huh7.5 cells; assay: "Total lipid" fatty acid profiling (GCMS) of hepatoma cells treated with iminosugars; assay type: cell-based, human; settings: uninfected state, antiviral concentrations, 4 days
Method: Methods for cell culture of replication-competent HCV in human hepatoma cells were essentially as described (Pollock, Nichita et al. 2010). Huh7.5 cells (Apath, LLC) were grown in DMEM supplemented with 100 U/ml penicillin, 100 μg/ml streptomycin, 2 mM L-glutamine, 1×MEM, and 10% FBS. All incubations were at 37° C./5% CO2. The effect of iminosugar treatment on cellular lipid profiles was determined for both uninfected and HCVcc-infected cells. In order to infect cells with HCV strain Jc1 (genotype 2a), Huh7.5 cells were incubated for 1 h in the presence of the virus at a multiplicity of infection (MOI)=0.02 using a viral stock of known titer. Cells were passaged for approximately 2 weeks to allow the infection to reach close to 100% of cells as determined by HCV core protein immunofluorescence, in order to avoid dilution of ‘infected’ lipidomic signatures by uninfected cells in partially infected cultures. Both HCV-infected and uninfected cells were then incubated in the presence or absence of iminosugars for 4 days, at which point they were harvested using trypsin/EDTA, washed 3 times in cold PBS, counted using trypan blue staining, and final cell pellets were resuspended in methanol:acetone (vol 1:1) prior to lipid profiling, A small volume of each sample was used for total protein estimation using the Bradford protein assay (Bio-Rad). […]

[4] = test system: obese mice; settings: cited from earlier work

CCCCC/C=C\C/C=C\C/C=C\C/C=C\CCCC(=O)O [arachidonic acid]
activation of PI3 kinase by insulin [1]: blocks the activation

CCCCN1C[C@H](O)[C@@H](O)[C@H](O)[C@H]1CO [NB-DNJ, N-butyl-deoxynojirimycin]
inhibitory activity towards ER alpha glucosidases [2]: also inhibits glucosidase

CCCCN1C[C@H](O)[C@@H](O)[C@@H](O)[C@H]1CO [NB-DGJ, N—(N-butyl) deoxygalactojirimycin]
inhibitory activity towards ER alpha glucosidases [2]: no inhibitory activity

OC[C@@H]1[C@@H](O)[C@H](O)[C@@H](O)CN1CCCCCOCC12CC3CC(CC(C3)C1)C2 [AMP-DNJ, N-(5-adamantane-1-yl-methoxy-pentyl)-deoxynojirimycin]
Mead acid component of the global fatty acid composition [3]: almost doubled
fatty acid synthase activity [4]: decreases fatty acid synthase activity
hepatic insulin sensitivity [4]: improves hepatic insulin sensitivity
hepatic steatosis [4]: abolishes hepatic steatosis
